Read-outs that look alike come from different tables or passages of the source. No end group written: not given here.
Key:
C. albicans [1] = details: 0.12 mg kg^−1 intraperitoneally
Experimental: The systemic C. albicans infection mouse model was established following the reported reference.^[ [22] ^] Cyclophosphamide (150 mg kg^−1 d^−1) was first injected intraperitoneally for 3 days to disrupt the immunity of female Kunming mice (Experimental Animal Center of Zhengzhou University, SCXK Yu 2021–0009). […] The injections were given once every 24 h during the first week and once every 48 h during the second week. Survival rates and body weights of the mice in each group were recorded during treatment. At 0, 7, and 14 d of treatment, duplicate samples (n = 3) of the spleen and thymus were collected from each group to determine the immune organ index.^[ [54] ^] The ratio of organ weight to body weight was adopted to describe the immune organ index. At 14 d of treatment, liver, lung, kidney, and spleen tissues were collected from each group of mice and immersed in 4% paraformaldehyde fixative. Subsequently, the tissue samples were embedded in paraffin, followed by sectioned and stained with hematoxylin‐eosin (H&E). Finally, optical microscopy was used to observe the pathological changes in the organ tissues of the mice.

[2] = test system: fluconazole‐resistant C. albicans; details: 1 × 10^6 CFU mL^−1, 28 °C, 12 h, then plated on SD agar 37 °C, 16 h
Experimental: Fluconazole‐resistant C. albicans was prepared following the established methods.^[ [23], [51], [52] ^]

C. albicans [3] = assay: Resistance induction by continuous passaging culture; type: cell-based, Candida albicans; details: for change of MIC on continuous passaging: SD broth, 24 h per generation, 28 °C
Experimental: The resistance tendency of c_AFPs developed in C. albicans was assessed utilizing a continuous passaging culture.^[ [23], [51] ^] […] Subsequently, 20 µL of culture was transferred to a fresh SD broth with the same concentration of c_AFPs/antibiotic. The concentrations of c_AFPs/antibiotic in the SD broth were doubled every 10 generations, and the MICs of the c_AFPs/antibiotic were detected every 5 generations. Each 24‐hour incubation was considered one generation. PBS (pH 6.0) was used as a blank control, and fluconazole was used as an antibiotic control. Each experiment was performed three times.

[4] = test system: human red blood cells (HRBCs); details: for MHC5, minimal hemolytic concentration that results in 5% human erythrocyte hemolysis: 2% fresh human red blood cells in saline, 37 °C, 30 min, absorbance 540 nm, mean ± SD, n = 3; for TI, therapeutic index against C. albicans: TI = MHC5/MIC100 (C. albicans)
Experimental: A 2% fresh human red blood cells (HRBCs) suspension was used in the hemolysis assay of c_AFPs.^[ [48], [50] ^] The c_AFPs solution was prepared in saline with a concentration range of 0–0.5 mg mL^−1. Then, 2% HRBCs suspension was incubated with different concentrations of c_AFPs in a 96‐well plate (37 °C, 30 min). […] Saline was used as a negative control, and Triton X‐100 (1%) was used as a positive control. Each experiment was replicated three times.

[5] = Day 7, fluconazole group, n = 3

| Compound | splenic index (C. albicans [1]; [5]) | thymic index (C. albicans [1]; [5]) | thymic index (C. albicans [1]; Day 14, fluconazole group, n = 3) | average increased weight after 14 days of treatment (C. albicans [1]; fluconazole group, n = 10) | minimum fungicidal concentration (MFC) against fluconazole‐resistant C. albicans [2] | change of MIC on continuous passaging (C. albicans [3]; 25th generation) | change of MIC on continuous passaging (C. albicans [3]; 40th generation) | MIC (C. albicans [3]; Candida albicans, read-out: MIC of fluconazole against C. albicans) | change of MIC on continuous passaging (C. albicans [3]; first 20 generations, 0.5 × MIC doubled every 10 generations) | MHC5, minimal hemolytic concentration that results in 5% human erythrocyte hemolysis [4] | TI, therapeutic index against C. albicans [4] |
| --- | --- | --- | --- | --- | --- | --- | --- | --- | --- | --- | --- |
| OC(Cn1cncn1)(Cn1cncn1)c1ccc(F)cc1F [fluconazole] | 9.89 mg/g | 2.45 mg/g | 5.16 mg/g | 8.16 g | > 50 × MIC | increased twofold | eightfold | 1.9 µg/mL | remained unchanged |  |  |
| RLWRIVLIRKAR-NH2 [AFP‐11] |  |  |  |  | 8 × MIC |  |  |  |  | 46.51 ± 2.24 µg/mL | 6.22 |
| RLWRIVLIRRAK-NH2 [AFP‐10] |  |  |  |  | 2 × MIC |  |  |  |  | 48.11 ± 1.54 µg/mL | 13.71 |
| RLWRIVVIRRAR-NH2 [AFP‐8] |  |  |  |  | 4 × MIC |  |  |  |  | 41.81 ± 1.88 µg/mL | 5.45 |
| VRWRIRLIRKLA-NH2 [AFP‐13] |  |  |  |  | 2 × MIC |  |  |  |  | 99.50 ± 3.28 µg/mL | 15.89 |
